Laboratory results taken from patent publication US20220105096A1, “INHIBITORS OF HUMAN IMMUNODEFICIENCY VIRUS REPLICATION” (ViiV HEALTHCARE UK (NO.5) LIMITED, priority 2019, published 2022).

How the values were obtained:
[1] = Pharmacokinetic parameters in vivo, dog; set-up: species or system Beagle Dogs
Protocol: (§1) PK was investigated in male CD1 mice, Wistar Han Rats, Cynomolgus monkeys, and Beagle Dogs. Two groups of animals (N=3 per group) received test compound either as an intravenous (IV) dose (1 mg/kg) or by oral gavage (5 mg/kg solution and suspension). Drug was formulated in 90% PEG 400, 10% ethanol for IV administration and in 90% PEG400, 5% ethanol for PO administration. Blood samples were collected at 0.167, 0.25, 0.5, 0.75, 1, 2, 3, 5, 7, 24, 48, 72 and 96 h post dose for IV; 0.25, 0.5, 0.75, 1, 2, 3, 5, 7, 24, 48, 72 and 96 h post dose for oral. Blood samples were collected into K3EDTA tubes and centrifuged at 1500 to 2000×g to obtain plasma. Plasma samples were stored at −20° C. until analysis by LC-MS/MS. All […] samples were injected on an Exion LC 4500 Triple Quad™ LC-MS/MS system. The analytical column used was a Phenomenex C18 (C18, 4.6 mm×50 mm, 5 μm) maintained at room temperature. Mobile Phase A consisted of 0.1% (v/v) formic acid in MilliQ water. Mobile Phase B consisted of 100% methanol. The flow rate was 1 mL/min. […] All LC-MS/MS analysis parameters are captured electronically in the raw data files. The PK parameters were obtained by non-compartmental analysis of plasma concentration vs time data (Phoenix WinNonlin v8). The peak concentration (Cmax) and time for Cmax (Tmax) were recorded directly from experimental observations. The area under the curve from time zero to the last sampling time [AUC0-T] and the area under the curve from time zero to infinity [AUCINF] were calculated using a combination of linear and log trapezoidal summations. The total plasma clearance (CLTp), steady-state volume of distribution (Vss), apparent elimination half-life (T-HALF), and mean residence time (MRT) were estimated after IV administration. Estimations of AUC and T-HALF were made using a minimum of three timepoints with quantifiable concentrations. The absolute oral bioavailability (F) was estimated as the ratio of dose-normalized AUC values following oral and IV doses.

recombinant NL4-3 virus = test: Antiviral potency in MT-2 cells infected with recombinant NL4-3 Renilla luciferase virus; format: cell-based, HIV; details: Human immunodeficiency virus 1, NL43, MT2
Protocol: MT-2 cells, 293T cells and the proviral DNA clone of NL4-3 virus were obtained from the NIH AIDS Research and Reference Reagent Program. MT-2 cells were propagated in RPMI 1640 media supplemented with 10% heat inactivated fetal bovine serum (FBS), […]. The 293T cells were propagated in DMEM media supplemented with 10% heat inactivated FBS, […] penicillin G and […] streptomycin. A recombinant NL4-3 proviral clone, in which a section of the nef gene was replaced with the Renilla luciferase gene, was used to make the reference virus used in these studies. The recombinant virus was prepared through transfection of the recombinant NL4-3 proviral clone into 293T cells using Transit-293 Transfection Reagent from Mirus Bio LLC (Madison, Wis.). Supernatant was harvested after 2-3 days and the amount of virus present was titered in MT-2 cells using luciferase enzyme activity as a marker by measuring luciferase enzyme activity. Luciferase was quantitated using the EnduRen Live Cell Substrate from Promega (Madison, Wis.). Antiviral activities of compounds toward the recombinant virus were quantified by measuring luciferase activity in MT-2 cells infected for 4-5 days with the recombinant virus in the presence of serial dilutions of the compound. […]

[2] = Metabolism in rat liver microsomes; format: in vitro ADME; details: pH 7.4, 1 μM compound, 1 mg/mL microsomes, NADPH, 37° C., read-out: Rat liver microsome T1/2
Protocol: (§2) Liver microsomes from human, rat dog and monkey were thawed and diluted to a final concentration of 1 mg/mL in 100 mM potassium phosphate buffer (pH 7.4). Test compounds and controls were prepared at 100× final concentration of 1 μM in 1:1 acetonitrile:water (v/v) and aliquoted into microsomal mixture. The mixture was preincubated at 37° C. in a shaking water bath for 10 minutes. The incubations were performed in duplicate. Three controls were included in the incubations; warfarin, phenacetin, and verapamil. After the preincubation, the reaction was initiated with NADPH at a final concentration of 1 mM. At 0, 5, 15, 30, 45 and 60 minutes, 25 μL of sample was removed and quenched with 300 μL of acetonitrile containing internal standard (Telmisartan). The samples were vortexed for 5 minutes at 1200 rpm and then centrifuged at 4000 rpm for 10 min. A 100 μL aliquot of supernatant was diluted three-fold with water and injected on an Exion LC 4500 Triple Quad LC-MS/MS system. Results were reported as a percentage of parent remaining and was calculated from peak area ratios of test compound remaining after at each time point and compared to time zero incubation.

[3] = Metabolism in dog liver microsomes; format: in vitro ADME
Protocol: as §2

[4] = Pharmacokinetic parameters in vivo, rat; set-up: species or system Wistar Han Rats; details: Wistar Han, plasma
Protocol: as §1

[5] = Beagle, plasma, Dog, IV 1 mg/kg

In the case of `Cn1nc(NS(C)(=O)=O)c2c(Cl)ccc(-n3c([C@H](Cc4cc(F)cc(F)c4)NC(=O)Cn4nc(C(F)F)c5c4C(F)(F)[C@@H]4C[C@H]54)nc4nc(OCCC(C)(F)F)ccc4c3=O)c21` (atropisomer, axis not shown; (P)) [Example 1, N—((S)-1-((3P)-3-(4-chloro-1-methyl-3-(methylsulfonamido)-1H-indazol-7-yl)-7-(3,3-difluorobutoxy)-4-oxo-3,4-dihydropyrido[2,3-d]pyrimidin-2-yl)-2-(3,5-difluorophenyl)ethyl)-2-((3bS,4aR)-3-(difluoromethyl)-5,5-difluoro-3b,4,4a,5-tetrahydro-1H-cyclopropa[3,4]cyclopenta[1,2-c]pyrazol-1-yl)acetamide], the clearance [1, 5] is reported as 1.16 mL/min/kg, the half-life [1, 5] is reported as 744 min and the Vd ([1]; Beagle, plasma, Dog, IV 1 mg/kg, read-out: Vss) is reported as 0.88 L/kg. For the same compound, the bioavailability ([1]; Beagle, plasma, Dog, oral gavage 5 mg/kg solution vs IV 1 mg/kg) was 34.6%, the “half-life in circulation higher than Example 60.2” value ([1]; dog) was “five-fold” and the “clearance improved relative to Example 60.2” value ([1]; dog, IV) was “seven-fold”. For the same compound, the EC50 (recombinant NL4-3 virus) was 0.019 ± 0.006 nM, the half-life at 1 μM [2] was greater than 120 min and the “stability in dog liver microsomes relative to Example 60.2” value ([3]; Example 1 versus Example 60.2) was “at least seven times more stable”. It also gave a half-life at 1 μM ([3]; dog, liver microsomes, pH 7.4, 1 μM compound, 1 mg/mL microsomes, NADPH, 37° C., read-out: Dog liver microsome T1/2) greater than 120 min, a clearance ([4]; IV 1 mg/kg) of 3.6 mL/min/kg and a half-life ([4]; IV 1 mg/kg) of 612 min. It also gave a Vd ([4]; IV 1 mg/kg, read-out: Vss) of 1.76 L/kg and a bioavailability ([4]; oral gavage 5 mg/kg solution vs IV 1 mg/kg) of 57.5%.
